“Also recorded” adds a separate entry of the source.
Assays:
[1] = tested on: MDA-MB-435 or MDA-MB231 or SKOV-3 cells; experiment: MTS tumor cell viability assay (agonist/antagonist activity of sigma-2 ligands); type: cell-based
Description: The cytotoxicity of test compounds is determined using the CellTiter96 Aqueous One Solution Assay (Promega, Madison, Wis.). Briefly, MDA-MB-435 or MDA-MB231 or SKOV-3 cells were seeded in a 96-well plate at a density of 2000 cells/well on the day prior to treatment with sigma-2 receptor selective ligands. After a 24 hour treatment, the CellTiter 96 AQueous One Solution Reagent is added to each well, and the plate incubated for 2 hours at 37° C. The plate is read at 490 nm in a Victor3 plate reader (PerkinElmer Life and Analytical Sciences, Shelton, Conn.). The EC^50 value, defined as the concentration of the sigma ligand required to inhibit cell viability by 50% relative to untreated cells, is determined from the dose response curve for each cell line. Siramesine is accepted as an agonist.

neuronal cultures = experiment: Nuclear intensity/morphology in neuronal cultures treated with sigma compounds; type: cell-based; conditions: 24 hours treatment, compared to vehicle
Description: Neuronal cultures are treated with various concentrations of sigma compounds for 24 hours and nuclear intensity compared to vehicle is measured. […] Isoindoline test compounds of the present disclosure are analyzed in this assay to help determine neuronal phenotype, results are shown in Table 2.

caspase-3 = conditions: cited from earlier work; for caspase-3 activation: tumor cells and neurons, WO2013/029060 FIGS. 10A and 10B
[2] = tested on: Abeta 42 oligomer-induced synapse loss in primary neurons; experiment: Abeta oligomer-induced synapse loss assay; type: cell-based
Description: The number of synapses can also be quantified in this assay by immunofluorochemistry.
Primary hippocampal neuronal culture is established as in the membrane trafficking assay above. […] Pretreatment with test compounds for 1 hr and addition of Abeta oligomers or no oligomer (vehicle alone) is followed by incubation for an additional 23 hrs.
The plates are then washed 3× with PBS for 5 min each. The plates are blocked at RT for 1 hr in 5% goat serum and 0.5% Triton X-100 in PBS. Primary antibodies (anti-MAP 2 polyclonal, Millipore #AB5622 and anti-Beta Amyloid 6E10 monoclonal, Covance #SIG-39300, at 1 microgram/ml, and rabbit polyclonal anti-synaptophysin, Anaspec, at 0.2 microgram/ml) were diluted 1:1000 in 5% goat serum with PBS. Primary antibodies are incubated overnight at 4° C. The plates are then washed 3× with PBS for 5 min each. Secondary antibodies (Alex Flor 488 polyclonal, Invitrogen #A11008 and Alexa Flor 647 monoclonal, Invitrogen #A21235) are diluted 1:1000 in 5% goat serum with PBS. Secondary antibodies are incubated at RT for 1 hr. The plates are washed once with PBS. DAPI (4′,6-diamidino-2-phenylindole, Invitrogen) is then applied at 0.03 ug/ul and incubated at RT for 5 min, then washed with PBS.

Fc1ccc(-n2cc(CCCCN3CCC4(CC3)OCc3ccccc34)c3ccccc32)cc1 [Siramesine]
Action [1]: Full agonist
nuclear morphology / nuclear intensity in neurons (neuronal cultures): cause significant abnormal nuclear morphology in neurons
caspase-3 activation (caspase-3): activate caspase-3 in tumor cells and neurons; also recorded: induces caspase-3 activity

COc1cc2c(cc1OC)CN(CCCCNC(=O)c1cc(C)ccc1OC)CC2 [RHM-1, N-[4-(3,4-dihydro-6,7-dimethoxyisoquinolin-2(1H)-yl)butyl]-2-methoxy-5-methylbenzamide]
Action [1]: Antagonist
nuclear morphology / nuclear intensity in neurons (neuronal cultures): do not decrease nuclear intensity
block of caspase-3 activation by agonist SV-119 in neurons (caspase-3; neurons, WO2013/029060 FIG. 10B): not able to block activation
caspase-3 activation (caspase-3): do not induce caspase-3 activity
inhibition of caspase-3 activation in tumor cells (caspase-3; tumor cells, WO2013/029060 FIG. 10A): inhibits the activation in tumor cells

CCCN(CCC)CCc1ccc(OC)c(OCCc2ccccc2)c1 [NE-100]
elimination of Abeta 42 oligomer-induced synapse loss [2]: completely eliminated synapse loss

O=C(CCCN1CCC(O)(c2ccc(Cl)cc2)CC1)c1ccc(F)cc1 [haloperidol]
elimination of Abeta 42 oligomer-induced synapse loss [2]: completely eliminated synapse loss

COc1ccc(C)cc1NC(=O)OC1C[C@H]2CCC[C@@H](C1)N2CCCCCCN (stereo partly drawn) [SV-119]
Action [1]: Full agonist
nuclear morphology / nuclear intensity in neurons (neuronal cultures): cause significant abnormal nuclear morphology in neurons
caspase-3 activation (caspase-3): activate caspase-3 in tumor cells and neurons

CCC(Oc1ccc(Cl)cc1)C(=O)OC1CC2CCC(C1)N2C (stereo not drawn) [SM-21]
elimination of Abeta 42 oligomer-induced synapse loss [2]: only weakly active in eliminating synapse loss
recovery of synapse loss [2]: 20%

Reference: patent publication US11691947B2, “Isoindoline compositions and methods for treating neurodegenerative disease” (priority 2014, dated 2023)
